Measured values published in ChEMBL document CHEMBL1152576, “E-Combretastatin and E-resveratrol structural modifications: antimicrobial and cancer cell growth inhibitory beta-E-nitrostyrenes” (Bioorg Med Chem, 2009).
pIC50: −log10 of the molar value. Values after ≈ are worked out from the molar mass of the structure shown. Active and inactive are the calls of the source. The rule behind the calls is not given here.

What was measured:
Enterococcus faecalis [1] = assay: Antimicrobial activity against Enterococcus faecalis ATCC 29212 by broth microdilution susceptibility assay; assay type: functional
A498 = assay: Cytotoxicity against human A498 cells after 48 hrs by sulforhodamine B assay; assay type: functional
Streptococcus pneumoniae [2] = assay: Antimicrobial activity against Streptococcus pneumoniae ATCC 6303 assessed clear zone in inhibition per disk by CLSI disk diffusion susceptibility assay; assay type: functional
BXPC-3 = assay: Cytotoxicity against human BxPC3 cells after 48 hrs by sulforhodamine B assay; assay type: functional; settings: BXPC-3, 48 h
Candida albicans [3] = assay: Antifungal activity against Candida albicans ATCC 90028 after 48 hrs by broth microdilution susceptibility assay; assay type: functional; settings: ATCC 90028, 48 h
Candida albicans [4] = assay: Antimicrobial activity against Candida albicans ATCC 90028 assessed clear zone in inhibition per disk by CLSI disk diffusion susceptibility assay; assay type: functional
Streptococcus pneumoniae [5] = assay: Antimicrobial activity against Streptococcus pneumoniae ATCC 6303 by broth microdilution susceptibility assay; assay type: functional
KM-20L2 = assay: Cytotoxicity against human KM20L2 cells after 48 hrs by sulforhodamine B assay; assay type: functional; settings: KM-20L2, 48 h
P388 = assay: Cytotoxicity against mouse P388 cells after 48 hrs by sulforhodamine B assay; assay type: functional; settings: P388, 48 h, read-out: ED50 (the source's name)
Cryptococcus neoformans [6] = assay: Antimicrobial activity against Cryptococcus neoformans ATCC 90112 assessed clear zone in inhibition per disk by CLSI disk diffusion susceptibility assay; assay type: functional
MCF7 = assay: Cytotoxicity against human MCF7 cells after 48 hrs by sulforhodamine B assay; assay type: functional; settings: MCF7, 48 h
[7] = system: Stenotrophomonas maltophilia; assay: Antimicrobial activity against Stenotrophomonas maltophilia ATCC 13637 by broth microdilution susceptibility assay; assay type: functional
Enterobacter cloacae [8] = assay: Antimicrobial activity against Enterobacter cloacae ATCC 13047 assessed clear zone in inhibition per disk by CLSI disk diffusion susceptibility assay; assay type: functional
DU-145 = assay: Cytotoxicity against human DU145 cells after 48 hrs by sulforhodamine B assay; assay type: functional; settings: DU-145, 48 h
Escherichia coli [9] = assay: Antimicrobial activity against Escherichia coli ATCC 25922 by broth microdilution susceptibility assay; assay type: functional
Neisseria gonorrhoeae [10] = assay: Antimicrobial activity against Neisseria gonorrhoeae ATCC 49226 by broth microdilution susceptibility assay; assay type: functional
[11] = system: Stenotrophomonas maltophilia; assay: Antimicrobial activity against Stenotrophomonas maltophilia ATCC 13637 assessed clear zone in inhibition per disk by CLSI disk diffusion susceptibility assay; assay type: functional
Candida albicans [12] = assay: Antifungal activity against Candida albicans ATCC 90028 after 24 hrs by broth microdilution susceptibility assay; assay type: functional; settings: ATCC 90028, 24 h
Micrococcus luteus [13] = assay: Antimicrobial activity against Micrococcus luteus Presque Isle 456 assessed clear zone in inhibition per disk by CLSI disk diffusion susceptibility assay; assay type: functional
Cryptococcus neoformans [14] = assay: Antifungal activity against Cryptococcus neoformans ATCC 90112 after 72 hrs by broth microdilution susceptibility assay; assay type: functional; settings: ATCC 90112, 72 h
SF-295 = assay: Cytotoxicity against human SF295 cells after 48 hrs by sulforhodamine B assay; assay type: functional
Cryptococcus neoformans [15] = assay: Antifungal activity against Cryptococcus neoformans ATCC 90112 after 48 hrs by broth microdilution susceptibility assay; assay type: functional; settings: ATCC 90112, 48 h
[16] = Inhibition of tubulin polymerization
Staphylococcus aureus [17] = assay: Antimicrobial activity against Staphylococcus aureus ATCC 29213 assessed clear zone in inhibition per disk by CLSI disk diffusion susceptibility assay; assay type: functional
SK-MEL-5 = assay: Cytotoxicity against human SK-MEL-5 cells after 48 hrs by sulforhodamine B assay; assay type: functional
Escherichia coli [18] = assay: Antimicrobial activity against Escherichia coli ATCC 25922 assessed clear zone in inhibition per disk by CLSI disk diffusion susceptibility assay; assay type: functional
OVCAR-3 = assay: Cytotoxicity against human OVCAR-3 cells after 48 hrs by sulforhodamine B assay; assay type: functional
Neisseria gonorrhoeae [19] = assay: Antimicrobial activity against Neisseria gonorrhoeae ATCC 49226 assessed clear zone of inhibition measured per disk by CLSI disk diffusion susceptibility assay; assay type: functional
Micrococcus luteus [20] = assay: Antimicrobial activity against Micrococcus luteus Presque Isle 456 by broth microdilution susceptibility assay; assay type: functional
Neisseria gonorrhoeae [21] = assay: Antimicrobial activity against Neisseria gonorrhoeae ATCC 49226 after 24 hrs by broth microdilution susceptibility assay; assay type: functional; settings: ATCC 49226, 24 h
NCI-H460 = assay: Cytotoxicity against human NCI-H460 cells after 48 hrs by sulforhodamine B assay; assay type: functional; settings: NCI-H460, 48 h
Staphylococcus aureus [22] = assay: Antimicrobial activity against Staphylococcus aureus ATCC 29213 by broth microdilution susceptibility assay; assay type: functional
Enterobacter cloacae [23] = assay: Antimicrobial activity against Enterobacter cloacae ATCC 13047 by broth microdilution susceptibility assay; assay type: functional
SF-268 = assay: Cytotoxicity against human SF268 cells after 48 hrs by sulforhodamine B assay; assay type: functional
Enterococcus faecalis [24] = assay: Antimicrobial activity against Enterococcus faecalis ATCC 29212 assessed clear zone in inhibition per disk by CLSI disk diffusion susceptibility assay; assay type: functional

SMILES	MIC (Enterococcus faecalis [1]) [µg/mL]	GI50 (A498)	MIC (Streptococcus pneumoniae [2]) [µg]	GI50 (BXPC-3) [µg/mL]	MIC (Candida albicans [3]) [µg/mL]	MIC (Candida albicans [4]) [µg]	MIC (Streptococcus pneumoniae [5]) [µg/mL]	GI50 (KM-20L2) [µg/mL]	EC50 (P388) [µg/mL]	MIC (Cryptococcus neoformans [6]) [µg]	GI50 (MCF7) [µg/mL]	MIC [7] [µg/mL]	MIC (Enterobacter cloacae [8]) [µg]	GI50 (DU-145) [µg/mL]	MIC (Escherichia coli [9]) [µg/mL]	MIC (Neisseria gonorrhoeae [10]) [µg/mL]	MIC [11] [µg]	MFC (Candida albicans [12]) [µg/mL]	MIC (Micrococcus luteus [13]) [µg]	MIC (Cryptococcus neoformans [14]) [µg/mL]	also measured
O=[N+]([O-])/C=C/c1ccc(O)cc1	> 64	inactive	6.25	1.6 (≈ 9.69 µM)	16 (≈ 96.9 µM)	12.5	64 (≈ 388 µM)	1.5 (≈ 9.08 µM)	1.5 (≈ 9.08 µM)	6.25	0.48 (≈ 2.91 µM)	> 64	25	1.5 (≈ 9.08 µM)	> 64	4 (≈ 24.2 µM)	6.25	16 (≈ 96.9 µM)	>100	8 (≈ 48.4 µM)	GI50 (SF-295; SF-295, 48 h): 1.7 µg/mL (≈ 10.3 µM); MFC (Cryptococcus neoformans [15]): 8 µg/mL (≈ 48.4 µM); pIC50 [16]: 5.00; MIC (Staphylococcus aureus [17]): 50 µg; GI50 (SK-MEL-5): inactive; MIC (Escherichia coli [18]): 12.5 µg; GI50 (OVCAR-3): inactive; MIC (Neisseria gonorrhoeae [19]): <0.78 µg; MIC (Micrococcus luteus [20]): > 64 µg/mL; MBC (Neisseria gonorrhoeae [21]): 4 µg/mL (≈ 24.2 µM); GI50 (NCI-H460): 1.7 µg/mL (≈ 10.3 µM); MIC (Staphylococcus aureus [22]): > 64 µg/mL; MIC (Enterobacter cloacae [23]): > 64 µg/mL; GI50 (SF-268): inactive; MIC (Enterococcus faecalis [24]): 6.25 µg
COc1ccc(/C=C/[N+](=O)[O-])cc1OC	> 64	inactive	12.5	1.5 (≈ 7.17 µM)	16 (≈ 76.5 µM)	6.25	> 64	1.3 (≈ 6.21 µM)	0.34 (≈ 1.63 µM)	3.12	0.53 (≈ 2.53 µM)	> 64	>100	1.4 (≈ 6.69 µM)	> 64	4 (≈ 19.1 µM)	>100	16 (≈ 76.5 µM)	50	16 (≈ 76.5 µM)	GI50 (SF-295): inactive; MFC (Cryptococcus neoformans [15]): 16 µg/mL (≈ 76.5 µM); pIC50 [16]: 5.22; MIC (Staphylococcus aureus [17]): 25 µg; GI50 (SK-MEL-5): inactive; MIC (Escherichia coli [18]): 25 µg; GI50 (OVCAR-3): inactive; MIC (Neisseria gonorrhoeae [19]): 0.78 µg; MIC (Micrococcus luteus [20]): > 64 µg/mL; MBC (Neisseria gonorrhoeae [21]): 4 µg/mL (≈ 19.1 µM); GI50 (NCI-H460): 0.46 µg/mL (≈ 2.2 µM); MIC (Staphylococcus aureus [22]): > 64 µg/mL; MIC (Enterobacter cloacae [23]): > 64 µg/mL; GI50 (SF-268; SF-268, 48 h): 0.71 µg/mL (≈ 3.39 µM); MIC (Enterococcus faecalis [24]): 25 µg
COc1ccc(/C=C/[N+](=O)[O-])cc1	> 64	inactive	6.25	1.8 (≈ 10 µM)	8 (≈ 44.6 µM)	3.12	> 64	1.5 (≈ 8.37 µM)	1.7 (≈ 9.49 µM)	1.56	0.54 (≈ 3.01 µM)	> 64	12.5	1.7 (≈ 9.49 µM)	> 64	2 (≈ 11.2 µM)	12.5	16 (≈ 89.3 µM)	50	16 (≈ 89.3 µM)	GI50 (SF-295; SF-295, 48 h): 1.6 µg/mL (≈ 8.93 µM); MFC (Cryptococcus neoformans [15]): 16 µg/mL (≈ 89.3 µM); pIC50 [16]: 5.24; MIC (Staphylococcus aureus [17]): 12.5 µg; GI50 (SK-MEL-5): inactive; MIC (Escherichia coli [18]): 6.25 µg; GI50 (OVCAR-3): inactive; MIC (Neisseria gonorrhoeae [19]): 0.78 µg; MIC (Micrococcus luteus [20]): > 64 µg/mL; MBC (Neisseria gonorrhoeae [21]): 2 µg/mL (≈ 11.2 µM); GI50 (NCI-H460): 1.7 µg/mL (≈ 9.49 µM); MIC (Staphylococcus aureus [22]): > 64 µg/mL; MIC (Enterobacter cloacae [23]): > 64 µg/mL; GI50 (SF-268): inactive; MIC (Enterococcus faecalis [24]): 50 µg
